Records with an inconclusive call do not appear.
Tested on: CD8F1 mice, subcutaneous mammary adenocarcinoma, T/C%
Assay: NCI In Vivo Anticancer Drug Screen. Data for tumor model Mammary Adenocarcinoma CD8F1 (subcutaneous) in CD8F1
Conditions: higher = larger tumour
Procedure, shortened: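 Mice carrying transplanted tumors received test compound, and survival or tumor size was recorded. Each value is the treated-group measurement divided by the corresponding measurement in vehicle-dosed controls.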

Nc1nc(N)c2c(Cl)c(CNc3ccc(Cl)c(Cl)c3)ccc2n1
T/C (endpoint: median tumor weight (est.), dose: 6.25 mg/kg/injection, schedule: Q07DX005 (ip), vehicle: saline with Tween-80): 55 % of control | T/C (endpoint: median tumor weight (est.), dose: 12.5 mg/kg/injection, schedule: Q07DX005 (ip), vehicle: saline with Tween-80): 78 % of control | T/C (endpoint: median tumor weight (est.), dose: 25.0 mg/kg/injection, schedule: Q07DX005 (ip), vehicle: saline with Tween-80): 82 % of control | T/C (endpoint: median tumor weight (est.), dose: 50.0 mg/kg/injection, schedule: Q07DX005 (ip), vehicle: saline with Tween-80): 8 % of control | T/C (endpoint: median tumor weight (est.), dose: 100.0 mg/kg/injection, schedule: Q07DX005 (ip), vehicle: saline with Tween-80): 27 % of control

NC(Cc1ccc(N(CCCl)CCCl)cc1)C(=O)O (stereo unspecified)
T/C (endpoint: median tumor weight (est.), dose: 2.0 mg/kg/injection, schedule: Q07DX005 (ip), vehicle: Klucel (hydroxypropylcellulose) (HPC)): 39 % of control | T/C (endpoint: median tumor weight (est.), dose: 4.0 mg/kg/injection, schedule: Q07DX005 (ip), vehicle: Klucel (hydroxypropylcellulose) (HPC)): 33 % of control

CCCCCC(O)C1C(=O)OC(C)C(O)/C=C/C=C/C=C/C=C\C=C(\C)C(O)CC(O)CC(O)CC(O)CC(O)CC(O)CC1O (stereo unspecified)
T/C (endpoint: median tumor weight change, dose: 62.5 mg/kg/injection, schedule: Q01DX001 (ip), vehicle: distilled water + Tween-80): 150 % of control

COC(=O)Nc1nc2ccc(SC)cc2c(=O)[nH]1
T/C (endpoint: median tumor weight change, dose: 125.0 mg/kg/injection, schedule: Q01DX001 (ip), vehicle: Klucel (hydroxypropylcellulose) (HPC)): 79 % of control | T/C (endpoint: median tumor weight change, dose: 250.0 mg/kg/injection, schedule: Q01DX001 (ip), vehicle: Klucel (hydroxypropylcellulose) (HPC)): 61 % of control | T/C (endpoint: median tumor weight change, dose: 500.0 mg/kg/injection, schedule: Q01DX001 (ip), vehicle: Klucel (hydroxypropylcellulose) (HPC)): 57 % of control

Reference: PubChem BioAssay AID220 (DTP/NCI, 2004)
